Test results reported in patent US20110028504A1, “Formulation of radioprotective alpha beta unsaturated aryl sulfones” (ONCONOVA THERAPEUTICS, INC., priority 2005, published 2011).
“Also recorded” adds a separate entry of the source.

Tests used:
[1] = Determination of pKa from saturated solubility at different pH; format: physicochemical
Procedure: The pKa of the weakly acidic drug is determined from pH-solubility data using the equation provided below.
Where Cs=observed solubility and C0=intrinsic solubility of the compound,
Since the drug is weakly acidic, its intrinsic solubility is assumed to be the solubility at a very low pH (pH=4) where the contribution due to ionization is minimal.

[2] = pH stability testing at 75° C. (HPLC); format: physicochemical
Procedure: (§1) The drug is dissolved in different pH buffers as outlined in Table 20. One hundred mL of each solution is prepared in a volumetric flask. Each solution is filtered through a 0.22 um filter. Approximately, four mL of the above solution is placed in 5 ml ampoules and sealed by a propane torch. The pH of the solution is determined at time zero and at each time interval. All the ampoules are placed in a 75° C. constant temperature oven. Any color changes or precipitation in the solution during the sample collection is visually observed. Concentration of the drug is determined at time zero and other time intervals by HPLC.
as §1, with “prepared in volumetric flask.” for “prepared in a volumetric flask.”, “filtered through 0.22 um” for “filtered through a 0.22 um”, “by HPLC. The pH and drug content of each sample are determined.” for “by HPLC.”
The data from the pH stability study is analyzed by plotting Log (conc.) versus time.
The rate constant for the degradation is determined using a linear regression at each individual pH.

O=C([O-])c1ccc(/C=C/S(=O)(=O)Cc2ccc(Cl)cc2)cc1.[Na+] [ON.1210.Na, (E)-4-Carboxystyryl-4-chlorobenzylsulfone, Sodium Salt]
Solubility ([1]; aqueous buffer, thermodynamic from solid, assumed to be the solubility at pH 4, read-out: intrinsic solubility): 0.154 µg/mL
pKa ([1]; calculated from solubility at pH 5): 2.61
pKa ([1]; calculated from solubility at pH 6): 2.33
pKa ([1]; calculated from solubility at pH 7.4): 2.54
pKa ([1]; calculated from solubility at pH 8): 2.96
pKa ([1]; calculated from solubility at pH 9): 3.82
pH-stability profile ([2]; aqueous buffers pH 4 to 9, 75° C., Sodium Salt): better stability at neutral and biological pH but degradation is rapid under acidic condition; also recorded: dramatically improved as the pH is increased towards the neutral pH
order of the degradation reaction ([2]; aqueous buffers, 75° C., Sodium Salt): pseudo-first-order rate; also recorded: pseudo first order reaction
stability in an aqueous environment ([2]; biological pH): quite stable in an aqueous environment at biological pH
Kobs, first order rate constant for the degradation ([2]; pH 4.0, 75° C.): 0.0621 day⁻¹
Concentration of the ON.1210.Na determined by HPLC during the stability study ([2]; pH 4 buffer, 75° C., 0 hours, pH of the solution 4.03): 2704.7 ng/mL
Concentration of the ON.1210.Na determined by HPLC during the stability study ([2]; pH 4 buffer, 75° C., 1 day, pH of the solution 4.3): 2659 ng/mL
Concentration of the ON.1210.Na determined by HPLC during the stability study ([2]; pH 4 buffer, 75° C., 3 days, pH of the solution 4.12): 2633.1 ng/mL
Concentration of the ON.1210.Na determined by HPLC during the stability study ([2]; pH 4 buffer, 75° C., 5 days, pH of the solution 4.5): 2734.4 ng/mL
Concentration of the ON.1210.Na determined by HPLC during the stability study ([2]; pH 4 buffer, 75° C., 42 days, pH of the solution 3.84): 117.1 ng/mL
Concentration of the ON.1210.Na determined by HPLC during the stability study ([2]; pH 4 buffer, 75° C., 54 days, pH of the solution 3.74): 161.4 ng/mL
Kobs, first order rate constant for the degradation ([2]; pH 5.0, 75° C.): 0.0295 day⁻¹
Concentration of the ON.1210.Na determined by HPLC during the stability study ([2]; pH 5 buffer, 75° C., 0 hours, pH of the solution 5.03): 4457.7 ng/mL
Concentration of the ON.1210.Na determined by HPLC during the stability study ([2]; pH 5 buffer, 75° C., 1 day, pH of the solution 5.18): 4394 ng/mL
Concentration of the ON.1210.Na determined by HPLC during the stability study ([2]; pH 5 buffer, 75° C., 3 days, pH of the solution 5.11): 4429.5 ng/mL
Concentration of the ON.1210.Na determined by HPLC during the stability study ([2]; pH 5 buffer, 75° C., 5 days, pH of the solution 5.14): 4471.4 ng/mL
Concentration of the ON.1210.Na determined by HPLC during the stability study ([2]; pH 5 buffer, 75° C., 10 days, pH of the solution 5.2): 1017 ng/mL
Concentration of the ON.1210.Na determined by HPLC during the stability study ([2]; pH 5 buffer, 75° C., 17 days, pH of the solution 5.21): 838.2 ng/mL
Concentration of the ON.1210.Na determined by HPLC during the stability study ([2]; pH 5 buffer, 75° C., 28 days, pH of the solution 4.71): 1334 ng/mL
Concentration of the ON.1210.Na determined by HPLC during the stability study ([2]; pH 5 buffer, 75° C., 35 days, pH of the solution 4.93): 2813.7 ng/mL
Concentration of the ON.1210.Na determined by HPLC during the stability study ([2]; pH 5 buffer, 75° C., 42 days): 1304.9 ng/mL
Concentration of the ON.1210.Na determined by HPLC during the stability study ([2]; pH 5 buffer, 75° C., 54 days, pH of the solution 4.76): 953.9 ng/mL
Kobs, first order rate constant for the degradation ([2]; pH 6.0, 75° C.): 0.0069 day⁻¹
Concentration of the ON.1210.Na determined by HPLC during the stability study ([2]; pH 6 buffer, 75° C., 0 hours, pH of the solution 6.02): 22390 ng/mL
Concentration of the ON.1210.Na determined by HPLC during the stability study ([2]; pH 6 buffer, 75° C., 1 day, pH of the solution 6.12): 22300 ng/mL
Concentration of the ON.1210.Na determined by HPLC during the stability study ([2]; pH 6 buffer, 75° C., 3 days, pH of the solution 6.21): 22360 ng/mL
Concentration of the ON.1210.Na determined by HPLC during the stability study ([2]; pH 6 buffer, 75° C., 5 days, pH of the solution 6.14): 22494.5 ng/mL
Concentration of the ON.1210.Na determined by HPLC during the stability study ([2]; pH 6 buffer, 75° C., 10 days, pH of the solution 6.17): 19086.3 ng/mL
Concentration of the ON.1210.Na determined by HPLC during the stability study ([2]; pH 6 buffer, 75° C., 17 days, pH of the solution 6.21): 18150 ng/mL
Concentration of the ON.1210.Na determined by HPLC during the stability study ([2]; pH 6 buffer, 75° C., 28 days, pH of the solution 5.81): 17540.1 ng/mL
Concentration of the ON.1210.Na determined by HPLC during the stability study ([2]; pH 6 buffer, 75° C., 35 days, pH of the solution 5.92): 17397.9 ng/mL
Concentration of the ON.1210.Na determined by HPLC during the stability study ([2]; pH 6 buffer, 75° C., 42 days, pH of the solution 5.94): 16000 ng/mL
Concentration of the ON.1210.Na determined by HPLC during the stability study ([2]; pH 6 buffer, 75° C., 54 days, pH of the solution 5.90): 14717.4 ng/mL
Kobs, first order rate constant for the degradation ([2]; pH 7.4, 75° C.): 0.0037 day⁻¹
Concentration of the ON.1210.Na determined by HPLC during the stability study ([2]; pH 7.4 buffer, 75° C., 0 hours, pH of the solution 7.41): 485952 ng/mL
Concentration of the ON.1210.Na determined by HPLC during the stability study ([2]; pH 7.4 buffer, 75° C., 1 day, pH of the solution 7.42): 485820.6 ng/mL
Concentration of the ON.1210.Na determined by HPLC during the stability study ([2]; pH 7.4 buffer, 75° C., 3 days, pH of the solution 7.52): 481463.7 ng/mL
Concentration of the ON.1210.Na determined by HPLC during the stability study ([2]; pH 7.4 buffer, 75° C., 5 days, pH of the solution 7.44): 484009 ng/mL
